In patent US20160297851A1, “BROAD SPECTRUM […]” (priority 2012, published 2016):
≈ marks a conversion by molar mass, not a printed value. Where two headings read alike, the source gives them in different places.

How the values were obtained:
Assay in all cases: microbe, parasite or virus in culture
wild type S. aureus 8325 = type: cell-based, Staphylococcus aureus
wild type E. coli MG1655 = type: cell-based, Escherichia coli
[1] = tested on: Streptococcus pyogenes M1-5448; type: cell-based
Yersinia pestis Kim+6 = type: cell-based
[2] = tested on: Lactobacillus acidophilus ATCC 4356; type: cell-based; details: ATCC4356
[3] = tested on: Lactobacillus plantarum ATCC 8014; type: cell-based; details: Lactiplantibacillus plantarum, ATCC8014
S. aureus Rosenbach 328 = type: cell-based; details: Staphylococcus aureus; MRSA strain

In the case of CCCCCCCCCCCCCCCC(=O)N(C)[C@H](CO)C(=O)N[C@H](C)C(=O)NCC(=O)N(C)[C@@H]1C(=O)N[C@@H](C)C(=O)N[C@H](C(=O)O)Cc2ccc(O)c(c2)-c2cc1ccc2O [Arylomycin C16, arylomycin C16], the activity in words (wild type S. aureus 8325) is reported as “no activity”, the MIC (wild type S. aureus 8325; Staphylococcus aureus, Resistant strain (wild type), read-out: MIC) is reported as > 64 µg/mL and the MIC (wild type E. coli MG1655; Escherichia coli, MG1655, Resistant strain (wild type), read-out: MIC) is reported as > 64 µg/mL. For the same molecule, the MIC (wild type E. coli MG1655; Resistant strain (wild type)) was >128 µg/mL, the MIC [1] was 16 µg/mL (≈ 18.2 µM) and the MIC ([1]; Streptococcus pyogenes, M15448, read-out: MIC) was 8 µg/mL (≈ 9.08 µM). For the same molecule, the MIC ([1]; listed as arylomycin A-C16) was 8 µg/mL (≈ 9.08 µM), the MIC (Yersinia pestis Kim+6) was 4 µg/mL (≈ 4.54 µM) and the MIC [2] was > 128 µg/mL. For the same molecule, the MIC [3] was > 128 µg/mL and the MIC (S. aureus Rosenbach 328) was 25 µg/mL (≈ 28.4 µM).
